The structures appear in SMILES notation. Several values for one entry are separate records, joined by “and”; a condition that tells them apart may be missing. Identical values can stand only once.

The text below walks through data of publication PMC7754785 (ACS Omega, 2020).

Assay [1] concerns the target Mpro from SARS CoV-2 (Severe acute respiratory syndrome coronavirus 2, UniProt P0DTD1). The assay is described as follows: Surface plasmon resonance binding to immobilized Mpro. Particulars: dissociation constant KD, SPR, Mpro immobilized on CM-5 chip; KD = koff/kon. Background: SPR reads the build-up and loss of mass on a sensor chip optically.
The target of assay [2] is T1, Mpro (Severe acute respiratory syndrome coronavirus 2, UniProt P0DTD1). The assay is described as follows: Universal protease activity assay with casein as substrate. Type of assay: biochemical, SARS-CoV-2. Particulars: IC50, 10 μM Mpro, 150 μM casein, phosphate buffer pH 7.5, 37 °C.
Assay [3] deals with T1, Mpro. Particulars: previous computational studies in our lab; cited from earlier work.
Assay [4] has as its target T1, Mpro. The note with it: previous computational studies in our lab; cited from earlier work. This is another data set of the same source.

In the case of `Nc1ccn([C@H]2C[C@H](O)[C@@H](COP(=O)(O)OP(=O)(O)OP(=O)(O)OP(=O)(O)OC[C@H]3O[C@@H](n4ccc(=O)[nH]c4=O)[C@H](O)[C@@H]3O)O2)c(=O)n1` [DB04983, Denufosol], the Kd (commonly the concentration at which binding is half-saturated) in assay [1] was 1400 µM and 1440 µM. The IC50 (in general, the point on the concentration scale where inhibition reaches its midpoint) in assay [2] stood at 1300 µM.

Consider `CSCCNc1nc(SCCC(F)(F)F)nc2c1ncn2[C@@H]1O[C@H](COP(=O)(O)OP(=O)(O)C(Cl)(Cl)P(=O)(O)O)[C@@H](O)[C@H]1O` [cangrelor], for which the Kd in assay [1] was 700 µM and 640 µM. This molecule also returned a 50% inhibitory concentration (IC50) in assay [2] of 900 µM. In addition, the docking score in assay [3] is -12.28 kcal/mol.

Take `CC(C)c1nc(CN(C)C(=O)N[C@@H](CCN2CCOCC2)C(=O)N[C@H](CC[C@H](Cc2ccccc2)NC(=O)OCc2cncs2)Cc2ccccc2)cs1` [cobicistat]: the Kd in assay [1] was ~2.1 µM and 2.1 µM. In addition, the IC50 in assay [2] was about 6.7 µM. In addition, in assay [3], the docking score was -12.31 kcal/mol. For the same molecule, in assay [4], the “MM-PBSA binding free energy” value was -11.41 kcal/mol.
